Reference: ChEMBL document CHEMBL5346933, “Design and synthesis of novel arylurea derivatives of aryloxy(1-phenylpropyl) alicyclic diamines with antimicrobial activity against multidrug-resistant Gram-positive bacteria” (Eur J Med Chem, 2023)
≈ marks a conversion by molar mass, not a printed value. Calls of active or inactive are those of the source. No cut-off for these calls is given here.

Key:
Cell membrane [1] = assay: Induction of cell membrane depolarization in methicillin-resistant Staphylococcus aureus 19449 assessed as bacterial cells with depolarized membrane potential at 2XMIC incubated for 25 to 30 mins by DiOC2(3) probe based flow cytometry (reference value: 0.7%); type: subcellular; conditions: time 25-30 min
Streptococcus pneumoniae = assay: Antibacterial activity against Oxacillin-resistant Streptococcus pneumoniae O/19/4541 assessed as inhibition of bacterial growth incubated for 18 hrs by broth microdilution method; type: functional
Cell membrane [2] = assay: Induction of cell membrane depolarization in methicillin-resistant Staphylococcus aureus 19449 assessed as bacterial cells with depolarized membrane potential at 4 times MIC incubated for 25 to 30 mins by DiOC2(3) probe based flow cytometry (reference value: 0.7%); type: subcellular; conditions: time 25-30 min
[3] = Intrinsic clearance in rat liver microsomes at 0.4 mg/ml preincubated for 10 mins followed by NADPH-regenerating system addition for 60 mins and measured per mg of protein by UPLC-MS analysis; type: ADME, Microsome; conditions: time 70 min, read-out: CLH
[4] = Metabolic stability in rat liver microsomes assessed as parent compound remaining at 0.4 mg/ml preincubated for 10 mins followed by NADPH-regenerating system addition for 60 mins by UPLC-MS analysis; type: ADME, Microsome; conditions: time 70 min, read-out: Stability
Staphylococcus aureus [5] = assay: Antibacterial activity against methicillin-susceptible Staphylococcus aureus ATCC 25923 assessed as inhibition of bacterial growth measured for 18 hrs by OD600 based analysis; type: functional, organism-based
Cell membrane [6] = assay: Induction of cell membrane depolarization in Staphylococcus aureus Newman assessed as bacterial cells with polarized membrane potential at 2XMIC incubated for 25 to 30 mins by DiOC2(3) probe based flow cytometry (reference value: 94.3%); type: subcellular; conditions: time 25-30 min
Enterococcus faecium = assay: Bactericidal activity against vancomycin-resistant Enterococcus faecium clinical strain assessed as reduction in colony forming units incubated for 18 hrs in broth followed by culturing on agar plate for 24 hrs; type: functional; conditions: time 42 hrs, read-out: MBC99.9
Staphylococcus aureus [7] = assay: Antibacterial activity against vancomycin-intermediate Staphylococcus aureus ATCC 700699 assessed as inhibition of bacterial growth incubated for 18 hrs by broth microdilution method; type: functional
Cell membrane [8] = assay: Induction of cell membrane depolarization in vancomycin-resistant Enterococcus faecium clinical strain assessed as bacterial cells with depolarized membrane potential at 2XMIC incubated for 25 to 30 mins by DiOC2(3) probe based flow cytometry (reference value: 0.8%); type: subcellular; conditions: time 25-30 min
Staphylococcus aureus [9] = assay: Bactericidal activity against vancomycin-intermediate Staphylococcus aureus ATCC 700699 assessed as log reduction of bacterial colony forming units at 4 times MIC incubated for 8 hrs in broth followed by culturing on agar plate for 24 hrs by time-killing assay; type: functional; conditions: time 32 hrs
[10] = Cytotoxicity against human BJ cells assessed as reduction in cell viability incubated for 24 hrs by MTT assay; type: toxicity, cell-based
[11] = test system: Staphylococcus epidermidis; assay: Antibacterial activity against biofilm producer Staphylococcus epidermidis ATCC 35984 assessed as inhibition of bacterial growth incubated for 18 hrs by broth microdilution method; type: functional
Cell membrane [12] = assay: Induction of cell membrane depolarization in methicillin-resistant Staphylococcus aureus 19449 assessed as bacterial cells with polarized membrane potential at MIC incubated for 25 to 30 mins by DiOC2(3) probe based flow cytometry (reference value: 98.8%); type: subcellular; conditions: time 25-30 min
Cell membrane [13] = assay: Induction of cell membrane depolarization in Staphylococcus aureus Newman assessed as bacterial cells with depolarized membrane potential at 2XMIC incubated for 25 to 30 mins by DiOC2(3) probe based flow cytometry (reference value: 1.6%); type: subcellular; conditions: time 25-30 min
Cell membrane [14] = assay: Induction of cell membrane depolarization in methicillin-resistant Staphylococcus aureus 19449 assessed as bacterial cells with polarized membrane potential at 4 times MIC incubated for 25 to 30 mins by DiOC2(3) probe based flow cytometry (reference value: 98.8%); type: subcellular; conditions: time 25-30 min
Staphylococcus aureus [15] = assay: Antibacterial activity against biofilm producer Staphylococcus aureus RN450 assessed as inhibition of bacterial growth incubated for 18 hrs by broth microdilution method; type: functional
Staphylococcus aureus [16] = assay: Ratio of MBC to MIC for vancomycin-intermediate Staphylococcus aureus ATCC 700699; type: functional
Staphylococcus aureus [17] = assay: Bactericidal activity against methicillin-susceptible Staphylococcus aureus ATCC 25923 assessed as reduction in colony forming units incubated for 18 hrs in broth followed by culturing on agar plate for 24 hrs; type: functional; conditions: time 42 hrs, read-out: MBC99.9
Klebsiella pneumoniae = assay: Antibacterial activity against Klebsiella pneumoniae ATCC 700603 assessed as inhibition of bacterial growth incubated for 18 hrs by broth microdilution method; type: functional
Enterococcus faecalis [18] = assay: Antibacterial activity against Enterococcus faecalis ATCC 29212 assessed as inhibition of bacterial growth incubated for 18 hrs by broth microdilution method; type: functional
Cell membrane [19] = assay: Induction of cell membrane depolarization in Staphylococcus aureus Newman assessed as bacterial cells with depolarized membrane potential at MIC incubated for 25 to 30 mins by DiOC2(3) probe based flow cytometry (reference value: 1.6%); type: subcellular; conditions: time 25-30 min
Cell membrane [20] = assay: Induction of cell membrane depolarization in Staphylococcus aureus Newman assessed as bacterial cells with polarized membrane potential at 4 times MIC incubated for 25 to 30 mins by DiOC2(3) probe based flow cytometry (reference value: 94.3%); type: subcellular; conditions: time 25-30 min
Enterococcus faecalis [21] = assay: Antibacterial activity against Enterococcus faecalis ATCC 29212 assessed as inhibition of bacterial growth measured for 18 hrs by OD600 based analysis; type: functional, organism-based
Cell membrane [22] = assay: Induction of cell membrane depolarization in Staphylococcus aureus Newman assessed as ratio of red to green fluorescence intensity at MIC incubated for 25 to 30 mins by DiOC2(3) probe based flow cytometry; type: subcellular; conditions: time 25-30 min
Cell membrane [23] = assay: Induction of cell membrane depolarization in methicillin-resistant Staphylococcus aureus 19449 assessed as ratio of red to green fluorescence intensity at MIC incubated for 25 to 30 mins by DiOC2(3) probe based flow cytometry; type: subcellular; conditions: time 25-30 min
Staphylococcus aureus [24] = assay: Bactericidal activity against vancomycin-intermediate Staphylococcus aureus ATCC 700699 assessed as log reduction of bacterial colony forming units at 4 times MIC incubated for 20 hrs in broth followed by culturing on agar plate for 24 hrs by time-killing assay; type: functional; conditions: time 44 hrs
Cell membrane [25] = assay: Induction of cell membrane depolarization in methicillin-resistant Staphylococcus aureus 19449 assessed as bacterial cells with depolarized membrane potential at MIC incubated for 25 to 30 mins by DiOC2(3) probe based flow cytometry (reference value: 0.7%); type: subcellular; conditions: time 25-30 min

Q: With `O=C(Nc1cccc(Cl)c1)NC1CCN(CCC(Oc2cccc(C(F)(F)F)c2)c2ccccc2)CC1` (racemic) as the compound, how does the Activity (Cell membrane [1]) read?
A: 96.8%

Q: And the MIC (Streptococcus pneumoniae)?
A: 12.5 µg/mL (≈ 23.5 µM)

Q: And the Activity (Cell membrane [2])?
A: 96.4%

Q: And the microsomal CLint [3]?
A: 8.94 µL/min/mg

Q: What about the remaining at 1 h [4] of the same compound?
A: 95%

Q: And the Activity (Staphylococcus aureus [5])?
A: Active

Q: And the Activity (Cell membrane [6])?
A: 0.1%

Q: What about the MBC (Enterococcus faecium) of the same compound?
A: 6.25 µg/mL (≈ 11.7 µM)

Q: What about the MIC (Staphylococcus aureus [7]) of the same compound?
A: 3.12 µg/mL (≈ 5.87 µM)

Q: What about the Activity (Cell membrane [8]) of the same compound?
A: 92.7%

Q: And the Activity (Staphylococcus aureus [9])?
A: 2 log10CFU/ml

Q: And the IC50 at 24 h [10]?
A: > 25 µg/mL

Q: And the MIC [11]?
A: 1.56 µg/mL (≈ 2.93 µM)

Q: And the Activity (Cell membrane [12])?
A: 6%

Q: What about the Activity (Cell membrane [13]) of the same compound?
A: 89.3%

Q: And the Activity (Cell membrane [14])?
A: 0%

Q: What about the MIC (Staphylococcus aureus [15]) of the same compound?
A: 1.56 µg/mL (≈ 2.93 µM)

Q: What about the Ratio (Staphylococcus aureus [16]) of the same compound?
A: 4

Q: And the MBC (Staphylococcus aureus [17])?
A: 12.5 µg/mL (≈ 23.5 µM)

Q: And the MIC (Klebsiella pneumoniae)?
A: > 12.5 µg/mL

Q: What about the MIC (Enterococcus faecalis [18]) of the same compound?
A: 1.56 µg/mL (≈ 2.93 µM)

Q: What about the Activity (Cell membrane [19]) of the same compound?
A: 89%

Q: What about the Activity (Cell membrane [20]) of the same compound?
A: 0%

Q: What about the Activity (Enterococcus faecalis [21]) of the same compound?
A: Active

Q: What about the Ratio (Cell membrane [22]) of the same compound?
A: 0.27

Q: What about the Ratio (Cell membrane [23]) of the same compound?
A: 0.53

Q: And the Activity (Staphylococcus aureus [24])?
A: >=3 log10CFU/ml

Q: And the Activity (Cell membrane [25])?
A: 91.6%
